Test results taken from US8802664B2 (Bioproject, priority 2010, dated 2014).

Target: T1, human H4 receptor (Homo sapiens, UniProt Q9H3N8)
T1 construct: expressed in transfected cells
Assay: [3H]Histamine binding on membranes of CHO cells stably expressing human H4 receptor
Conditions: not given
How it was run: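 Filter-bound counts (liquid scintillation) gave H4 binding. Incubation used 20 μg membrane protein/well in Tris/HCl 50 mM plus EDTA 0.5 mM at pH 7.4, and 10 μM JNJ 7777120 set nonspecific binding. Filtration on GF/B pretreated with polyethyleneimine stopped the reaction.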

Ki or IC50 activity class | Structure (SMILES)
< 300 nM | CN1CCC(OC(c2cccc(-c3ccc(Cl)c(Cl)c3)c2)c2nc3ccccc3s2)CC1 (centres unmarked) [Example 133, 2-[(3′,4′-dichlorobiphenyl-3-yl)(1-methylpiperidin-4-yloxy)methyl]benzothiazole]
< 1000 nM | CN1CCC(OC(c2ccc(O)cc2)c2nc3ccccc3[nH]2)CC1 (centres unmarked) [Example 597]
< 300 nM | CN1CCC(OC(c2ccc3c(c2)OCO3)c2nc3ccccc3[nH]2)CC1 (centres unmarked) [Example 297, 2-[benzo[1,3]dioxol-5-yl(1-methylpiperidin-4-yloxy)methyl]-1H-benzimidazole]
< 300 nM | CN1CCC(OC(c2cccc(Oc3cccnc3)c2)c2nc3ccccc3s2)CC1 (centres unmarked) [Example 448, 2-{(1-methylpiperidin-4-yloxy)[3-(pyridin-3-yloxy)phenyl]methyl}benzothiazole]
< 30 nM | COC(=O)CSc1cccc(C(OC2CCN(C)CC2)c2nc3ccccc3s2)c1 (centres unmarked) [Example 160, {3-[benzothiazol-2-yl(1-methylpiperidin-4-yloxy)methyl]phenylsulfanyl}acetic acid methyl ester]
< 1000 nM | CN1CCC(OC(c2cccc(C#CCCCn3ccnn3)c2)c2nc3ccccc3[nH]2)CC1 (centres unmarked) [Example 417, 2-{(1-methylpiperidin-4-yloxy)[3-(5-[1,2,3]triazol-1-ylpent-1-ynyl)phenyl]methyl}-1H-benzimidazole]
< 1000 nM | Brc1cccc(C(OCC2CNC2)c2nc3ccccc3[nH]2)c1 (centres unmarked) [Example 502]
< 300 nM | CN1CCC(OC(c2nc3ccccc3[nH]2)c2cccs2)CC1 (centres unmarked) [Example 546]
< 1000 nM | Fc1ccc(OC(F)(F)F)cc1C(OCC1CNC1)c1nc2ccccc2[nH]1 (centres unmarked) [Example 515]
< 30 nM | CN1CCC(OC(c2cccc(C=CCCCO)c2)c2nc3ccccc3s2)CC1 (centres unmarked) [Example 390, 5-{3-[(benzothiazol-2-yl)(1-methylpiperidin-4-yloxy)methyl]phenyl}pent-4-en-1-ol]
< 300 nM | CN1CCC(OC(c2cccc(C#CCCCO)c2)c2nc3ccccc3s2)CC1 (centres unmarked) [Example 237, 5-{3-[benzothiazol-2-yl(1-methylpiperidin-4-yloxy)methyl]phenyl}pent-4-yn-1-ol]
< 300 nM | CN1CCC(OC(c2cccc(SCCn3nccn3)c2)c2nc3ccccc3s2)CC1 (centres unmarked) [Example 240, 2-{(1-methylpiperidin-4-yloxy)[3-(2-[1,2,3]triazol-2-yl-ethylsulfanyl)phenyl]methyl}benzothiazole]
< 300 nM | CN1CCC(NC(c2cccc(OCc3ccc(F)cc3)c2)c2nc3ccccc3[nH]2)CC1 (centres unmarked) [Example 103, {(1H-benzimidazol-2-yl)[3-(4-fluorobenzyloxy)phenyl]methyl}(1-methylpiperidin-4-yl)amine]
< 30 nM | CN1CC(COC(c2cccc(SCCCCN)c2)c2nc3ccccc3[nH]2)C1 (centres unmarked) [Example 507, 4-{3-[(1H-benzimidazol-2-yl)(1-methylazetidin-3-ylmethoxy)methyl]phenylsulfanyl}butylamine]
< 30 nM | CN1CCC(OC(c2cccc(SCCO)c2)c2nc3ccccc3s2)CC1 (centres unmarked) [Example 158, 2-{3-[benzothiazol-2-yl(1-methylpiperidin-4-yloxy)methyl]phenylsulfanyl}ethanol]
< 30 nM | CN1CCC(OC(c2cccc(SCCNC(=N)N)c2)c2nc3ccccc3s2)CC1 (centres unmarked) [Example 302, N-(2-{3-[benzothiazol-2-yl(1-methylpiperidin-4-yloxy)methyl]phenylsulfanyl}ethyl)guanidine]
< 1000 nM | CN1CCC(OC(c2cccc(SCC(O)CO)c2)c2nc3ccccc3[nH]2)CC1 (centres unmarked) [Example 288, 3-{3-[(1H-benzimidazol-2-yl)(1-methylpiperidin-4-yloxy)methyl]phenylsulfanyl}propane-1,2-diol]
< 300 nM | CN1CCC(OC(c2cccc(CCc3cn(C)cn3)c2)c2nc3ccccc3s2)CC1 (centres unmarked) [Example 306, 2-[{3-[2-(1-methyl-1H-imidazol-4-yl)ethyl]phenyl}(1-methylpiperidin-4-yloxy)methyl]benzothiazole]
< 30 nM | CN1CCC(OC(c2cccc(SCC=CCN)c2)c2nc3ccccc3[nH]2)CC1 (centres unmarked) [Example 473]
< 1000 nM | CN1CCC(OC(c2cccc(C=C3NC(=N)NC3=O)c2)c2nc3ccccc3[nH]2)CC1 (centres unmarked) [Example 505, 5-{3-[(1H-benzimidazol-2-yl)(1-methylpiperidin-4-yloxy)methyl]benzylidene}-2-iminoimidazolidin-4-one]

Ki or IC50 activity class | Structure (SMILES)
< 300 nM | CN1CCC(OC(c2cccc(-n3cccn3)c2)c2nc3ccccc3s2)CC1 (centres unmarked) [Example 147, 2-[(1-methylpiperidin-4-yloxy)(3-pyrazol-1-ylphenyl)methyl]benzothiazole]
< 300 nM | Cc1cccc(C(NC2CCN(C)CC2)c2nc3ccccc3s2)c1 (centres unmarked) [Example 21, [(benzothiazol-2-yl)(m-tolyl)methyl](1-methylpiperidin-4-yl)amine]
< 30 nM | CN1CCC(OC(c2cccc(OCc3cccc(N)c3)c2)c2nc3ccccc3s2)CC1 (centres unmarked) [Example 228, 3-{3-[benzothiazol-2-yl(1-methylpiperidin-4-yloxy)methyl]phenoxymethyl}phenylamine]
< 300 nM | CN1CCC(OC(c2nc3ccccc3o2)c2cc(OC(F)(F)F)ccc2F)CC1 (centres unmarked) [Example 525, 2-[(2-fluoro-5-trifluoromethoxyphenyl)(1-methylpiperidin-4-yloxy)methyl]benzoxazole]
< 30 nM | CN1CCC(OC(c2cccc(C#CCNC(=N)N)c2)c2nc3ccccc3s2)CC1 (centres unmarked) [Example 373, N-(3-{3-[benzothiazol-2-yl(1-methylpiperidin-4-yloxy)methyl]phenyl}prop-2-ynyl)guanidine]
< 300 nM | CN1CCC(OC(c2cccc(CCCCNC(=N)N)c2)c2nc3ccccc3[nH]2)CC1 (centres unmarked) [Example 308, N-(4-{3-[(1H-benzimidazol-2-yl)(1-methylpiperidin-4-yloxy)methyl]phenyl}butyl)guanidine]
< 300 nM | CCCOc1cccc(C(NC2CCN(C)CC2)c2nc3ccccc3s2)c1 (single isomer, unassigned) [Example 56, [benzothiazol-2-yl(3-propoxyphenyl)methyl](1-methylpiperidin-4-yl)amine]
< 30 nM | CN1CCC(OC(c2cccc(C#CCCCCN)c2)c2nc3ccccc3s2)CC1 (centres unmarked) [Example 319, 6-{3-[benzothiazol-2-yl(1-methylpiperidin-4-yloxy)methyl]phenyl}hex-5-ynylamine]
< 30 nM | CN1CCC(OC(c2cccc(OCCCCCN)c2)c2nc3ccccc3s2)CC1 (centres unmarked) [Example 371, 5-{3-[benzothiazol-2-yl(1-methylpiperidin-4-yloxy)methyl]phenoxy}pentylamine]
< 1000 nM | CN1CCC(OC(c2cccc(N3CCC(F)(F)C3)c2)c2nc3ccccc3[nH]2)CC1 (centres unmarked) [Example 491]
< 300 nM | CN1CCC(OC(c2cccc(OC3CCNCC3)c2)c2nc3ccccc3s2)CC1 (centres unmarked) [Example 415, 2-{(1-methylpiperidin-4-yloxy)[3-(piperidin-4-yloxy)phenyl]methyl}benzothiazole]
< 300 nM | CN1CCC(OC(c2ccc3c(c2)CCO3)c2nc3ccccc3s2)CC1 (centres unmarked) [Example 32, 2-[(2,3-dihydrobenzofuran-5-yl)(1-methylpiperidin-4-yloxy)methyl]benzothiazole]
< 30 nM | CN1CCC(OC(c2cccc(C#CCCCN)c2)c2nc3cc(F)ccc3[nH]2)CC1 (centres unmarked) [Example 438, 5-{3-[(5-fluoro-1H-benzimidazol-2-yl)(1-methylpiperidin-4-yloxy)methyl]phenyl}pent-4-ynylamine]
< 300 nM | CN1CCC(OC(c2cccc(SCCN)c2)c2nc3ccccc3[nH]2)CC1 (centres unmarked) [Example 249, 2-{3-[(1H-benzimidazol-2-yl)(1-methylpiperidin-4-yloxy)methyl]phenylsulfanyl}ethylamine]
< 30 nM | CCCOc1ccc(F)c(C(OC2CCN(C)CC2)c2nc3ccccc3[nH]2)c1 (centres unmarked) [Example 519]
< 300 nM | CN1CCC(OC(c2cccc(-c3ccccc3Cl)c2)c2nc3ccccc3[nH]2)CC1 (centres unmarked) [Example 121, 2-[(2′-Chlorobiphenyl-3-yl)(1-methylpiperidin-4-yloxy)methyl]-1H-benzimidazole]
< 30 nM | CN1CCC(OC(c2cccc(OCc3ccccn3)c2)c2nc3ccccc3s2)CC1 (centres unmarked) [Example 283, 2-{(1-methylpiperidin-4-yloxy)[3-(pyridin-2-ylmethoxy)phenyl]methyl}benzothiazole]
< 300 nM | CN1CCC(OC(c2cccc(N3CCCC3CO)c2)c2nc3ccccc3s2)CC1 (centres unmarked) [Example 324, (1-{3-[benzothiazol-2-yl(1-methylpiperidin-4-yloxy)methyl]phenyl}pyrrolidin-2-yl)methanol]
< 30 nM | Cc1cc(F)c(C(OC2CCN(C)CC2)c2nc3ccccc3s2)c(F)c1 (centres unmarked) [Example 531]
< 300 nM | CN1CCC(OC(c2cccc(C#CCCCn3nccn3)c2)c2nc3ccccc3[nH]2)CC1 (centres unmarked) [Example 416, 2-{(1-methylpiperidin-4-yloxy)[3-(5-[1,2,3]triazol-2-yl-pent-1-ynyl)phenyl]methyl}-1H-benzimidazole]

Structure (SMILES) | Ki or IC50 activity class
CN1CCC(OC(c2cccc(OCCCCn3cncn3)c2)c2nc3ccccc3s2)CC1 (centres unmarked) [Example 316, 2-{(1-methylpiperidin-4-yloxy)[3-(4-[1,2,4]triazol-1-yl-butoxy)phenyl]methyl}benzothiazole] | < 300 nM

Same assay, conditions: human H4 receptor; evaluated in the GTPγ[35S] assay or in the [3H]histamine binding assay (not stated which per compound); Ki or IC50 class

Ki or IC50 activity class | Structure (SMILES)
< 30 nM | CN1CCC(OC(c2cccc(SCC=CCN)c2)c2nc3ccccc3[nH]2)CC1 (centres unmarked) [Example 474]
< 300 nM | CN1CCC(OC(c2cccc(N3CCC(N)C3)c2)c2nc3ccccc3s2)CC1 (centres unmarked) [Example 429, 1-{3-[benzothiazol-2-yl(1-methylpiperidin-4-yloxy)methyl]phenyl}pyrrolidin-3-ylamine]

Same assay, conditions: read-out: Activity (Ki or IC50)

Structure (SMILES) | Ki
CN1CCC(OC(c2cccc(SCCNC(=N)NC(=O)C(C)(C)C)c2)c2nc3ccccc3[nH]2)CC1 (centres unmarked) [Example 446] | < 300 nM
